Test results reported in patent publication EP0527889B1, “QUINOLIZINONE TYPE COMPOUNDS” (priority 1990, dated 1991).
Converted amounts (≈) assume the structure as drawn. Counter-ions that a name gives are not always drawn.

Assays:
[1] = tested on: Staphylococcus aureus A-5278; assay: In vitro antibacterial activity, MIC by agar dilution; format: cell-based; conditions: BHI agar, 35-37°C, 20-24 hours, unit assumed
Method: (§1) Each plate was inoculated with 1:100 (or 1:10 for slow growing strains, primarily Micrococcus and Streptococcus) dilutions of up to 32 different microorganisms, using a Steers replicator block calibrated to deliver approximately 10^4 colony forming units (CFUs). The inoculated plates were incubated at from about 35°C to about 37°C for approximately 20-24 hours. In addition, a control plate using BHI agar containing no test compound was prepared and incubated at the beginning and at the end of each test. Ciprofloxacin was used as the control antibiotic.
(§2) The MIC was defined as the lowest concentration of test compound yielding no growth (a slight haze or sparsely isolated colonies at the inoculum spot) as compared to the growth control containing no test compound.

Pseudomonas cepacia 296I = assay: as above; format: cell-based; conditions: BHI agar, 35-37°C, 20-24 hours, unit assumed
Method: as §1, §2

[2] = tested on: Staphylococcus aureus A5177; assay: as above; format: cell-based; conditions: BHI agar, 35-37°C, 20-24 hours, unit assumed
Method: as §1, §2

Escherichia coli H560 = assay: as above; format: cell-based; conditions: BHI agar, 35-37°C, 20-24 hours, unit assumed
Method: as §1, §2

[3] = tested on: Staphylococcus aureus 1775; assay: as above; format: cell-based; conditions: BHI agar, 35-37°C, 20-24 hours, unit assumed
Method: as §1, §2

Escherichia coli DC-2 = assay: as above; format: cell-based; conditions: BHI agar, 35-37°C, 20-24 hours, unit assumed
Method: as §1, §2

[4] = tested on: Enterococcus faecium ATCC 8043; assay: as above; format: cell-based; conditions: BHI agar, 35-37°C, 20-24 hours, unit assumed
Method: as §1, §2

[5] = tested on: Pseudomonas aeruginosa BMH10; assay: as above; format: cell-based; conditions: BHI agar, 35-37°C, 20-24 hours, unit assumed
Method: as §1, §2

[6] = tested on: Pseudomonas aeruginosa 2862; assay: as above; format: cell-based; conditions: BHI agar, 35-37°C, 20-24 hours, unit assumed
Method: as §1, §2

[7] = tested on: Staphylococcus aureus CMX 553; assay: as above; format: cell-based; conditions: BHI agar, 35-37°C, 20-24 hours, unit assumed
Method: as §1, §2

[8] = tested on: Pseudomonas aeruginosa K799/WT; assay: as above; format: cell-based; conditions: BHI agar, 35-37°C, 20-24 hours, unit assumed
Method: as §1, §2

[9] = tested on: Staphylococcus aureus 642A; assay: as above; format: cell-based; conditions: BHI agar, 35-37°C, 20-24 hours, unit assumed
Method: as §1, §2

Escherichia coli SS = assay: as above; format: cell-based; conditions: BHI agar, 35-37°C, 20-24 hours, unit assumed
Method: as §1, §2

[10] = tested on: Streptococcus pyrogenes 2548 INDUC; assay: as above; format: cell-based; conditions: BHI agar, 35-37°C, 20-24 hours, unit assumed
Method: as §1, §2

[11] = tested on: Staphylococcus epidermidis 3519; assay: as above; format: cell-based; conditions: BHI agar, 35-37°C, 20-24 hours, unit assumed
Method: as §1, §2

[12] = tested on: Acinetobacter calcoaceticus CMX 669; assay: as above; format: cell-based; conditions: BHI agar, 35-37°C, 20-24 hours, unit assumed
Method: as §1, §2

[13] = tested on: Micrococcus luteus ATCC 9341; assay: as above; format: cell-based; conditions: BHI agar, 35-37°C, 20-24 hours, unit assumed
Method: as §1, §2

Escherichia coli JUHL = assay: as above; format: cell-based; conditions: BHI agar, 35-37°C, 20-24 hours, unit assumed
Method: as §1, §2

[14] = tested on: Staphylococcus aureus NCTC 10649; assay: as above; format: cell-based; conditions: BHI agar, 35-37°C, 20-24 hours, unit assumed
Method: as §1, §2

[15] = tested on: Staphylococcus aureus ATCC 6538P; assay: as above; format: cell-based; conditions: BHI agar, 35-37°C, 20-24 hours, unit assumed
Method: as §1, §2

[16] = tested on: Streptococcus bovis A5169; assay: as above; format: cell-based; conditions: BHI agar, 35-37°C, 20-24 hours, unit assumed
Method: as §1, §2

[17] = tested on: Pseudomonas aeruginosa 5263; assay: as above; format: cell-based; conditions: BHI agar, 35-37°C, 20-24 hours, unit assumed
Method: as §1, §2

[18] = tested on: Streptococcus pyrogenes CONST; assay: as above; format: cell-based; conditions: BHI agar, 35-37°C, 20-24 hours, unit assumed
Method: as §1, §2

[19] = tested on: Streptococcus pyrogenes EES61; assay: as above; format: cell-based; conditions: BHI agar, 35-37°C, 20-24 hours, unit assumed
Method: as §1, §2

[20] = tested on: Streptococcus agalactaciae CMX 508; assay: as above; format: cell-based; conditions: BHI agar, 35-37°C, 20-24 hours, unit assumed
Method: as §1, §2

[21] = tested on: Pseudomonas aeruginosa A5007; assay: as above; format: cell-based; conditions: BHI agar, 35-37°C, 20-24 hours, unit assumed
Method: as §1, §2

[22] = tested on: Micrococcus luteus ATCC 4698; assay: as above; format: cell-based; conditions: BHI agar, 35-37°C, 20-24 hours, unit assumed
Method: as §1, §2

[23] = tested on: Enterobacter aerogenes ATCC 13048; assay: as above; format: cell-based; conditions: BHI agar, 35-37°C, 20-24 hours, unit assumed
Method: as §1, §2

[24] = tested on: Providencia stuartii CMX 640; assay: as above; format: cell-based; conditions: BHI agar, 35-37°C, 20-24 hours, unit assumed
Method: as §1, §2

Escherichia coli KNK 437 = assay: as above; format: cell-based; conditions: BHI agar, 35-37°C, 20-24 hours, unit assumed
Method: as §1, §2

[25] = tested on: Pseudomonas aeruginosa K799/61; assay: as above; format: cell-based; conditions: BHI agar, 35-37°C, 20-24 hours, unit assumed
Method: as §1, §2

[26] = tested on: Klebsiella pneumoniae ATCC 8045; assay: as above; format: cell-based; conditions: BHI agar, 35-37°C, 20-24 hours, unit assumed
Method: as §1, §2

[27] = tested on: Staphylococcus aureus NCTC 10649; assay: In vivo antibacterial activity in mice (protection from lethal intraperitoneal infection); conditions: NCTC10649, 144 h, S. aureus, CF-1 female mice infected intraperitoneally with 100 times the LD50, treated at 1 and 5 hr after infection, cumulative mortalities on the sixth day
Method: The in vivo antibacterial activity of the compounds of the present invention was determined as follows: Aqueous solutions of the test compounds were prepared by dissolving the compound in distilled water, except for the compounds of examples 169 and 170 which were dissolved in a solution of 2% DMSO in distilled water.
After 18 hr incubation, a culture of Staphylococcus aureus NCTC 10649 was serially diluted by using 10-fold dilutions in 5% (w/v) hog gastric mucin. Cultures (0.5 mL) in a dilution from 10^-1 to 10^-8 were injected intraperitoneally into CF-1 female mice weighing approximately 20g. The LD50 (median lethal dose) for the test organism was calculated from the cumulative mortalities on the sixth day by the using the Reed and Muench procedure (Reed, L.J., and H. Muench, Amer. J. Hygiene, 27, 493 (1938)).
The above 18 hr culture was diluted in 5% (w/v) hog gastric mucin to obtain 100 times the LD50, and 0.5 mL was injected intraperitoneally into mice. The mice were treated subcutaneously (sc) or orally (po) with a specific amount of the test compound divided equally to be administered at 1 and 5 hr after infection. A group of 10 animals each for at least three dose levels was thus treated, and the deaths were recorded daily for 6 days. Ten mice were left untreated as infection control. ED50 values were calculated from the cumulative mortalities on the sixth day after infection by using the trimmed version of the Logit method ( Hamilton, M.A., R.C. Russo, and R.V. Thurston, Environ. Sci. Technol. 11, 714 (1977)).

| SMILES | MIC values [1] [µg/mL] | MIC values (Pseudomonas cepacia 296I) [µg/mL] | MIC values [2] [µg/mL] | MIC values (Escherichia coli H560) [µg/mL] | MIC values [3] [µg/mL] | MIC values (Escherichia coli DC-2) [µg/mL] | MIC values [4] [µg/mL] | MIC values [5] [µg/mL] | MIC values [6] [µg/mL] | MIC values [7] [µg/mL] | MIC values [8] [µg/mL] | MIC values [9] [µg/mL] | MIC values (Escherichia coli SS) [µg/mL] | MIC values [10] [µg/mL] | MIC values [11] [µg/mL] | MIC values [12] [µg/mL] | MIC values [13] [µg/mL] | MIC values (Escherichia coli JUHL) [µg/mL] | MIC values [14] [µg/mL] | MIC values [15] [µg/mL] | also measured |
| --- | --- | --- | --- | --- | --- | --- | --- | --- | --- | --- | --- | --- | --- | --- | --- | --- | --- | --- | --- | --- | --- |
| CC(=O)N[C@H]1C[C@H](C)N(c2nc3c(-c4ccc(F)cc4F)cc(C(=O)O)c(=O)n3cc2F)C1 [Example 169, 2-((2S,4S)-4-Acetamido-2-methylpyrrolidin-1-yl)-9-(2,4-difluorophenyl)-3-fluoro-6H-6-oxopyrido[1,2-a]pyrimidine-7-carboxylic acid] | 0.2 (≈ 0.434 µM) | 25 (≈ 54.3 µM) | 0.2 (≈ 0.434 µM) | 0.78 (≈ 1.69 µM) | 25 (≈ 54.3 µM) | 12.5 (≈ 27.1 µM) | 1.56 (≈ 3.39 µM) | 3.1 (≈ 6.73 µM) | > 100 | 0.39 (≈ 0.847 µM) | 3.1 (≈ 6.73 µM) | 0.39 (≈ 0.847 µM) | 0.005 (≈ 0.0109 µM) | 0.39 (≈ 0.847 µM) | 0.39 (≈ 0.847 µM) | 3.1 (≈ 6.73 µM) | 3.1 (≈ 6.73 µM) | 0.78 (≈ 1.69 µM) | 0.2 (≈ 0.434 µM) | 0.1 (≈ 0.217 µM) | MIC values [16]: 3.1 µg/mL (≈ 6.73 µM); MIC values [17]: > 100 µg/mL; MIC values [18]: 0.39 µg/mL (≈ 0.847 µM); MIC values [19]: 0.78 µg/mL (≈ 1.69 µM); MIC values [20]: 0.78 µg/mL (≈ 1.69 µM); MIC values [21]: 3.1 µg/mL (≈ 6.73 µM); MIC values [22]: 0.39 µg/mL (≈ 0.847 µM); MIC values [23]: 3.1 µg/mL (≈ 6.73 µM); MIC values [24]: 25 µg/mL (≈ 54.3 µM); MIC values (Escherichia coli KNK 437): 6.2 µg/mL (≈ 13.5 µM); MIC values [25]: 0.39 µg/mL (≈ 0.847 µM); MIC values [26]: 0.39 µg/mL (≈ 0.847 µM); ED50 ([27]; po): > 48 mg/kg; ED50 ([27]; sc): 7.5 mg/kg |
| NC1CCN(c2nc3c(-c4c(F)c(F)c(F)c(F)c4F)cc(C(=O)O)c(=O)n3cc2F)C1 (centres unmarked) [Example 172, 2-(3-Aminopyrrolidin-1-yl)-3-fluoro-9-(2,3,4,5,6-pentafluorophenyl)-6H-6-oxopyrido[1,2-a]pyrimidine-7-carboxylic acid hydrochloride salt] | 50 | > 100 | 100 | 6.2 | > 100 | > 100 | > 100 | 50 | > 100 | > 100 | 100 | 100 | 0.39 | > 100 | 50 | 25 | > 100 | 6.2 | 50 | 50 | MIC values [16]: > 100 µg/mL; MIC values [17]: > 100 µg/mL; MIC values [18]: > 100 µg/mL; MIC values [19]: > 100 µg/mL; MIC values [20]: > 100 µg/mL; MIC values [21]: 50 µg/mL; MIC values [22]: > 100 µg/mL; MIC values [23]: 6.2 µg/mL; MIC values [24]: > 100 µg/mL; MIC values (Escherichia coli KNK 437): > 100 µg/mL; MIC values [25]: 6.2 µg/mL; MIC values [26]: 3.1 µg/mL |
| C[C@H](N)C(=O)N[C@@H](C)C(=O)N[C@H]1C[C@H](C)N(c2nc3c(-c4ccc(F)cc4F)cc(C(=O)O)c(=O)n3cc2F)C1 [Example 173, 2-((2S, 4S)-4-(N-(S)-Alanyl-(S)-alanyl)amino-2-methylpyrrolidin-1-yl)-9-(2,4-difluorophenyl)-3-fluoro-6H-6-oxopyrido[1,2-a]pyrimidine-7-carboxylic acid hydrochloride] | 6.2 | > 100 | 6.2 | 3.1 | > 100 | > 100 | 50 | 50 | > 100 | 12.5 | 100 | 12.5 | 0.1 | 6.2 | 6.2 | 25 | > 100 | 6.2 | 1.56 | 1.56 | MIC values [16]: 25 µg/mL; MIC values [17]: > 100 µg/mL; MIC values [18]: 12.5 µg/mL; MIC values [19]: 12.5 µg/mL; MIC values [20]: 12.5 µg/mL; MIC values [21]: 50 µg/mL; MIC values [22]: 100 µg/mL; MIC values [23]: 25 µg/mL; MIC values [24]: > 100 µg/mL; MIC values (Escherichia coli KNK 437): 100 µg/mL; MIC values [25]: 3.1 µg/mL; MIC values [26]: 3.1 µg/mL |
